# From PubChem BioAssay (NCI)
#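 A five-concentration, 48-hour dose response in 96-well plates underlies each endpoint, interpolated linearly between surrounding concentrations. The concentration for 50% growth inhibition is given as GI50. TGI denotes the concentration required for complete inhibition of growth.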
# Columns and labels:
# Assay in all cases: growth of human tumour cells (NCI), 48 h
# [1] = system: ACHN renal
# [2] = system: MALME-3M melanoma
# [3] = system: NCI-H226 lung
# [4] = system: NCI-H460 lung
# [5] = system: T-47D breast
# [6] = system: UACC-257 melanoma
# [7] = system: UO-31 renal
# [8] = system: K-562 leukemia
# [9] = system: MOLT-4 leukemia
# [10] = system: BT-549 breast
Structure (SMILES),GI50 [1],TGI [1],GI50 [2],TGI [2],GI50 [3],TGI [3],GI50 [4],TGI [4],GI50 [5],TGI [5],GI50 [6],TGI [6],GI50 [7],TGI [7],TGI [8],TGI [9],GI50 [10],TGI [10],GI50 [8],GI50 [9]
Cc1ccc(S(=O)(=O)N(C)C)cc1[N+](=O)[O-],> 100 µM,> 100 µM,> 100 µM,> 100 µM,> 100 µM,> 100 µM,> 100 µM,> 100 µM,> 100 µM,> 100 µM,> 100 µM,> 100 µM,21.5 µM,> 100 µM,–,–,–,–,–,–
CN(C)CCC1(C2=CCCC2)CC/C(=C\c2ccc3c(c2)OCO3)C1=O (stereo not drawn),–,29.6 µM,–,30.1 µM,–,–,–,36.2 µM,–,–,–,29 µM,–,20.2 µM,32 µM,31.4 µM,–,–,–,–
COc1nc(OC)c2c(=O)oc(-c3ccccc3)cc2n1,–,> 100 µM,–,> 100 µM,–,> 100 µM,–,–,–,–,–,> 100 µM,–,> 100 µM,> 100 µM,> 100 µM,–,–,–,–
CCCCOC1CC2(c3ccc(OC)cc3)C(=O)c3ccccc3N2O1 (stereo not drawn),–,> 10 µM,–,58.3 µM,–,> 10 µM,–,> 10 µM,–,–,–,70.1 µM,–,> 10 µM,> 100 µM,61.5 µM,–,–,–,–
CC(NC(=O)c1ccccc1)C(=O)N(Cc1ccccc1)Cc1ccccc1 (stereo not drawn),–,> 100 µM,–,53.7 µM,–,56.3 µM,–,65.4 µM,–,–,–,> 100 µM,–,83.9 µM,43.5 µM,35.6 µM,–,–,–,–
O=C1CCC2(c3ccc(F)cc3)Nc3ccccc3N12 (stereo not drawn),–,> 100 µM,–,> 100 µM,–,> 100 µM,–,> 100 µM,–,–,–,> 100 µM,–,> 100 µM,> 100 µM,> 100 µM,–,–,–,–
Cn1ncc2cc(-c3cnc(N)c(Cl)c3N3CCC4(CCNC4=O)CC3)ccc21,–,–,37.5 µM,> 100 µM,38.1 µM,> 100 µM,59 µM,> 100 µM,15.7 µM,84.2 µM,31.2 µM,66.1 µM,17.7 µM,> 100 µM,> 100 µM,> 100 µM,29.2 µM,> 100 µM,45.5 µM,20.7 µM
COC(=O)c1cnc2nc(N3CCOCC3)[nH]n2c1=O,–,> 100 µM,–,> 100 µM,–,> 100 µM,–,> 100 µM,–,–,–,> 100 µM,–,> 100 µM,> 100 µM,> 100 µM,–,–,–,–
COc1cc(OC)cc(N2CCC(c3c(N)nc(N)nc3Cl)CC2)c1,–,> 100 µM,–,> 100 µM,–,–,–,> 100 µM,–,–,–,> 100 µM,–,> 100 µM,> 100 µM,> 100 µM,–,–,–,–
O=C(NC1CCCCC1)c1c(O)[nH]c(=S)[nH]c1=O,–,> 100 µM,–,> 100 µM,–,> 100 µM,–,> 100 µM,–,–,–,> 100 µM,–,> 100 µM,–,> 100 µM,–,–,–,–
CC(=O)[CH-]C(=O)c1ccccc1.CC(=O)[CH-]C(=O)c1ccccc1.[Nd+3].[OH-].[OH3+],> 100 µM,> 100 µM,> 100 µM,> 100 µM,> 100 µM,> 100 µM,> 100 µM,> 100 µM,–,–,> 100 µM,> 100 µM,> 100 µM,> 100 µM,> 100 µM,> 100 µM,–,–,> 100 µM,> 100 µM
